Measurements published in US7811771B2, “Method for the functional determination of mannan-binding-lectin associated serine proteases (MASPs) and complexes thereof” (Nederlandse Organisatie voor …, priority 2004, dated 2010).

What was measured:
MBL-MASP complex = test: Effect of inhibitor on serum MASP activity (captured MBL-MASP complex, pro-urokinase detection); type: biochemical; settings: 0-1 μM BMpg vs DMSO control; human serum captured on mannan coated plate; wild-type pro-urokinase and pyro-Glu-Gly-Arg-pNA; 37° C., 2 h
Procedure: MBL-MASP complexes were captured on a mannan coated plate as described in example 4. After capture, buffer, pro-urokinase and peptide substrate and boroMpg (0-1 μM final concentration) in DMSO, or an equivalent amount of pure DMSO (control) were added and activity was measured. All details were as described in example 4. Activity was expressed as ΔA^405/h^2×1000.
A mannan coated plate was used to capture MBL-MASP complex from diluted human serum. After washing, 100 μl buffer containing 0-1 μM Z-D-Phe-Pro-methoxypropylboroglycine-pinanediolester (BMpg or boroMpg) or buffer containing an identical volume of DMSO (solvent of boroMpg), 15 μl (50 μg/ml) wild-type pro-urokinase and 10 μl (6 mM) pyro-Glu-Gly-Arg-pNA were added. The plate was incubated at 37° C. and colour formation was followed for 2 h with a plate reader at 405 nm. Activities were expressed as ΔA/h^2×1000. All details are as described in Example 4. The results summarized in FIG. 9 show no effect of BMpg on activity of the captured MBL-MASP complex.

MASP-1 = biological target: T1, MASP-1 (Homo sapiens, UniProt P48740); settings: known from Presanis et al. Mol. Immunol. 2003; cited from earlier work
T1 sequence (P48740 20-699): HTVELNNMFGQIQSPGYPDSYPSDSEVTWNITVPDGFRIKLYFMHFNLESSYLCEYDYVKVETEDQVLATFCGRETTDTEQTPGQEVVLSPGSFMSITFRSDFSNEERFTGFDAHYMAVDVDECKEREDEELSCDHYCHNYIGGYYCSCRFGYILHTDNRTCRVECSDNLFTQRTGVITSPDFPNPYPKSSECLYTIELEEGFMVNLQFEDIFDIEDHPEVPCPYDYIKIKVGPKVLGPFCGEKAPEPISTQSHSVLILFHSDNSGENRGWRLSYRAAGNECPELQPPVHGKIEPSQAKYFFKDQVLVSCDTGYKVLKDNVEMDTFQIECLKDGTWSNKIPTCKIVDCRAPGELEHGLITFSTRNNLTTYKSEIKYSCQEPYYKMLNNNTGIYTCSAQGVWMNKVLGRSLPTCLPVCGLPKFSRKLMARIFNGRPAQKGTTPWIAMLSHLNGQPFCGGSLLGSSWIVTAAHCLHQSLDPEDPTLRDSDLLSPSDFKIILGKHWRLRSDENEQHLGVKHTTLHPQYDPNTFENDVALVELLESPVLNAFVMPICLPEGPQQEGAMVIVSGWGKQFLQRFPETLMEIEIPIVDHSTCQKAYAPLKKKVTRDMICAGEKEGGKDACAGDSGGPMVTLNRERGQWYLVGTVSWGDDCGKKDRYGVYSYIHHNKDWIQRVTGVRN

MASP-2 [1] = biological target: T2, MASP-2 (Homo sapiens, UniProt O00187); settings: known from Presanis et al. Mol. Immunol. 2003; cited from earlier work
Target sequence in this assay (O00187 16-686): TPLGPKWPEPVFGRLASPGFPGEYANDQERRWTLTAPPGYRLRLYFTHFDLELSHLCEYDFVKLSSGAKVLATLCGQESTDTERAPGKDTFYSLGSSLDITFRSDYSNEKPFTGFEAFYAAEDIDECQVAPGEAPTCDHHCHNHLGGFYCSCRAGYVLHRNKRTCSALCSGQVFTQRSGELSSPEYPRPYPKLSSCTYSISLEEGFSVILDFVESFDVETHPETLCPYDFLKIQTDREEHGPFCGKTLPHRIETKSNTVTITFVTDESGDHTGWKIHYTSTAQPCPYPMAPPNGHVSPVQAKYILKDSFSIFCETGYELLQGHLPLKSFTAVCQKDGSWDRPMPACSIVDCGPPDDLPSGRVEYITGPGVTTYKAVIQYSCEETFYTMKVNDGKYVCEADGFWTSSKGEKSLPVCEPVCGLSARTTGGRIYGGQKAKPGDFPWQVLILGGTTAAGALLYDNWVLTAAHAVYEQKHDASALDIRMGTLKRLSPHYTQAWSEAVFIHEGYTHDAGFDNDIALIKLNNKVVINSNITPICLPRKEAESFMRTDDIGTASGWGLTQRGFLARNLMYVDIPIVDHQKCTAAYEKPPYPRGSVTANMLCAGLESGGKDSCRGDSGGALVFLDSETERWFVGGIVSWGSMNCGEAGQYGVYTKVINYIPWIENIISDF

MBL-MASP complexes = test: Determination of MBL-MASP complexes in serum with pro-urokinase substrates; type: biochemical, human; settings: serum diluted 10-320 fold, mannan coated plate
Procedure: A mannan-coated microtiter plate was used to bind and immobilize MBL-MASP complexes from heterozygous MBL-deficient serum (A/B genotype), homozygous MBL-deficient serum (B/B genotype) and normal serum (A/A genotype) in various dilutions. After washing, wild-type pro-urokinase or substrate 2 and chromogenic peptide pyro-Glu-Gly-Arg-pNA were added. The absorbance change at 405 nm was followed in time. The slopes of A405 versus time-squared graphs were taken as a measure of activity.
Based on the results of example 2 an assay for MBL-MASP complexes in serum was developed. Three different sera were used, serum […] MBL deficiency, serum (B/B) with an homozygous MBL deficiency and a normal serum (A/A). A microtiter plate was coated with mannan, washed and blocked as described in example 2.
Serum samples were diluted 10-320 fold in GVB++buffer (see example 2) and 100 μl of these dilutions were pipetted into wells of the coated microtiter plate. […]
To all wells 100 μl of detection buffer, 10 μl of either wild-type pro-urokinase or pro-urokinase derivative 2 at 7.6 μg/ml and 10 μl of pyro-Glu-Gly-Arg-pNA at 6 mM were added (see example 2). The plate was shaken and A^405 was followed in time with a microtiter plate reader. The slopes of the graphs of A^405 versus time squared were calculated and used as a measure of activity.

MASP-2 [2] = biological target: T2, MASP-2; test: Activity of recombinant MASP-2 on novel substrates; type: biochemical; parameters: Recombinant MASP-2 (active form) at 600 μg/ml was serially diluted; settings: serially diluted recombinant MASP-2, 37° C., 2 h, A405
Procedure: Various dilutions of purified recombinant MASP-2 were tested for their response with wild-type pro-urokinase based detection and substrate 2 (table 1) based detection. MASP-2 was diluted in buffer to which wt pro-urokinase or pro-urokinase derivative 2 was added followed by pyro-Glu-Gly-Arg-pNA. The plate was incubated for 2h and A^405 was measured (see example 5 for details).
The activity of purified recombinant MASP-2 on wt pro-urokinase and substrate 2 was investigated. Recombinant MASP-2 (active form) at 600 μg/ml was serially diluted in 50 mM Tris HCl pH7.6, 1.5 mM NaCl, 0.5 mM CaCl2, 1 μM ZnCl2, 0.01% (v/v) BRIJ35™. To wells of a microtiter plate 100 μl of MASP-2 dilution, 10 μof wt pro-urokinase at approximately 50 μg/ml) or 10 μl substrate 2 (at approximately 75 μg/ml) were added, followed by 10 μl of peptide substrate pyro Glu-Gly-Arg-pNA (at 6 mM). The plate was incubated at 37° C. and absorbance change at 405 nm was followed in time for 2 h.
Target sequence in this assay (O00187 16-444 limits assumed): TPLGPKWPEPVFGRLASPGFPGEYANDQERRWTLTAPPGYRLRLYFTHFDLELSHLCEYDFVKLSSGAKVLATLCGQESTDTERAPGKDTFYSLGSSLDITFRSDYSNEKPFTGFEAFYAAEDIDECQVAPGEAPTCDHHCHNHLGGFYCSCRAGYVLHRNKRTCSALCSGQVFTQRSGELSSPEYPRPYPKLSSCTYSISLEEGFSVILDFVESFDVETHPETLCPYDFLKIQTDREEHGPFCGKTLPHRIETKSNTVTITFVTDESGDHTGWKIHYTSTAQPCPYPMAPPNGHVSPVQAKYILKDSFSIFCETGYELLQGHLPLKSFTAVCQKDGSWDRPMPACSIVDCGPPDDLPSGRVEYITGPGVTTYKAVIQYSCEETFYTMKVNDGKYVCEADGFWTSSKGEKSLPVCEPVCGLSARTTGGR
Target sequence in this assay (O00187 445-686 limits assumed): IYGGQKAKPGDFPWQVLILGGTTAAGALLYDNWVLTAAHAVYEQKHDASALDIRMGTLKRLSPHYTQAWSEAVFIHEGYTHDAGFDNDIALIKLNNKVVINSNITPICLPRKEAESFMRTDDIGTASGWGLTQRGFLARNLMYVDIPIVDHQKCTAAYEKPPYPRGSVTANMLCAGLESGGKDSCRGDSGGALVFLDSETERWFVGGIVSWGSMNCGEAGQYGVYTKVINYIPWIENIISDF

effect on activity of the captured MBL-MASP complex (ΔA/h^2×1000) (MBL-MASP complex)	activity in normal (A/A) serum (slope of A405 versus time squared) (MBL-MASP complexes)	detection of MASP-2 activity (MASP-2 [2])	Compound	inhibition of MASP-1 (MASP-1)	inhibition of MASP-2 (MASP-2 [1])
no effect			COCCC[C@@H](NC(=O)[C@@H]1CCCN1C(=O)[C@@H](Cc1ccccc1)NC(=O)OCc1ccccc1)B1OC2C[C@@H]3C[C@@H](C3(C)C)[C@]2(C)O1 (stereo partly drawn) [BMpg, Z-D-Phe-Pro-methoxypropylboroglycine-pinanediolester]	inhibit MASP-1	not MASP-2
	dose dependent activity	can be detected	substrate 2: pro-urokinase mutant with activation site Asn-Leu-Thr-Arg-Ile-Val-Gly-Gly (SEQ ID NO:4) (NLTRIVGG; activation site)		
